Laboratory results reported in publication PMC4335872, “Pharmacokinetic-Pharmacodynamic Analysis of Spiroindolone Analogs and KAE609 in a Murine Malaria Model” (Antimicrobial Agents and Chemotherapy, 2015).

Tests used:
[1] = In vivo PK after single p.o. and i.v. dosing in CD-1 mice; set-up: species or system female CD-1 mice; settings: CD-1 mice; for CL / Vss / t1/2 (i.v.): i.v. 5 mg/kg; for F (oral bioavailability): oral 25 mg/kg vs i.v. 5 mg/kg; for AUC0–24 / Tmax / t1/2 (oral) / Cmax: single oral dose 25 mg/kg; for Cmax: plasma
Experimental: The Institutional Animal Care and Use Committee (IACUC) of the Novartis Institute for Tropical Diseases (NITD), registered with the Agri-Food and Veterinary authority (AVA), Government of Singapore, reviewed and approved all animal experimental protocols. […] The mice were allowed to acclimate before the initiation of the experiments. Feed and water were given ad libitum. […] The blood samples from the mice were collected at 0.02 (for i.v. only), 0.08, 0.25, 0.5, 1, 2, 4, 8, 16, and 24 h postdosing. The dose proportionality studies were conducted with KAE609. […] Additional samples were collected at 32 h and 48 h postdose for the 1- and 5-mg/kg dose groups and up to 72 h postdose for the 100-mg/kg dose group. Groups of three mice were used for each time point. Blood was centrifuged at 13,000 rpm for 7 min at 4°C, and plasma was harvested and stored at -20°C until analysis. […] After vortexing and centrifuging the mixture, the supernatant was removed and 5 μl of sample analyzed. Analyte quantitation was performed by high-performance liquid chromatography coupled with tandem mass spectrometry (LC-MS/MS). […] Instrument control and data acquisition were performed using the Applied Biosystems software Analyst 1.4.2. […] Multiple-reaction monitoring (MRM) was combined with optimized MS parameters to maximize detection specificity and sensitivity. The most intense MRM transitions [338.3/295.1 for (+)-1, 370.1/327.0 for (+)-2, 370.0/326.9 for (+)-3, 354.1/310.8 for (+)-4, 354.1/311.2 for (+)-5, 372.1/329.1 for (+)-6, 388.0/331.8 for (+)-7, 372.1/316.1 for (-)-6, and 388/332 for (-)-7] were used for quantitation. Most compounds were analyzed using electrospray ionization in the negative mode, except (+)-1, which was analyzed using positive mode. The recovery of the compounds from plasma was good and consistent across the concentration range studied. The lower limits of quantification for different compounds ranged from 1.3 to 70 ng/ml in plasma. A calibration curve was freshly prepared and analyzed with every set of study samples. Intraday variability was established with triplicate quality control samples at three concentration levels. The results were accepted if relative standard deviation was <15%. The mean values of the compound concentrations in plasma were obtained from three animals at each time point and plotted against time to generate concentration-time profiles. […] The oral bioavailability (F) was calculated as the ratio between the area under the concentration-time curve from 0 to infinity (AUC0-∞) following oral administration and the AUC0-∞ following intravenous administration corrected for dose (F = […].).

[2] = Parallel artificial membrane permeability assay (PAMPA); assay type: in vitro ADME; settings: % fraction absorbed
Description: page 5: Running title: PreclinicalPK -PD of antimalarials 73 to high through put form at using in- house standard assa y protocols that are described in the 74 literature. 75 (a)HT-Equilibrium solubilit y at pH 6.8( 1); (b)Parallel Artificial Membrane P ermeability Assa y 76 expressed in % fraction absorbed (FA) ( 2,3 ); (c)Apparent permeability from apical to […] 78 tested; (d)intrinsic clearance in mouse liver micro somes ex pressed as µ L/ min/mg protein, in 79 the presen ce of liver enzym es ( 6); (e)Mous e plasm a protein binding using rapid equilibrium […] 81 82 83 84 85 86 87 88 89 90 91 92 93 94 95 96 97 98 5

Question: For C[C@H]1Cc2c([nH]c3ccc(Cl)cc23)[C@@]2(N1)C(=O)Nc1ccc(Cl)cc12 [(+)-2], which CL [1] is on record?
Answer: 92.6 mL/min/kg

Question: What about the Vss [1] of the same compound?
Answer: 9.9 L/kg

Question: What about the “t1/2 (i.v.)” value [1] of the same compound?
Answer: 4.6 h

Question: And the “F (oral bioavailability)” value [1]?
Answer: 62%

Question: And the “AUC0–24” value [1]?
Answer: 2.9 µg·h/mL

Question: What about the Tmax [1] of the same compound?
Answer: 1 h

Question: What about the “t1/2 (oral)” value [1] of the same compound?
Answer: 4.3 h

Question: What about the Cmax [1] of the same compound?
Answer: 0.6 µg/mL

Question: Which CL [1] does the source give for C[C@H]1Cc2c([nH]c3cc(Cl)ccc23)[C@@]2(N1)C(=O)Nc1ccc(Cl)cc12 [(+)-3] here?
Answer: 60.1 mL/min/kg

Question: What about the Vss [1] of the same compound?
Answer: 13.7 L/kg

Question: What about the “t1/2 (i.v.)” value [1] of the same compound?
Answer: 4.3 h

Question: And the “F (oral bioavailability)” value [1]?
Answer: 91%

Question: What about the “AUC0–24” value [1] of the same compound?
Answer: 5.8 µg·h/mL

Question: And the Tmax [1]?
Answer: 2 h

Question: And the “t1/2 (oral)” value [1]?
Answer: 6.2 h

Question: And the Cmax [1]?
Answer: 0.7 µg/mL

Question: With C[C@H]1Cc2c([nH]c3ccc(F)cc23)[C@@]2(N1)C(=O)Nc1ccc(Cl)cc12 [(+)-4] as the compound, how does the CL [1] read?
Answer: 24.0 mL/min/kg

Question: And the Vss [1]?
Answer: 1.9 L/kg

Question: And the “t1/2 (i.v.)” value [1]?
Answer: 4.7 h

Question: And the “F (oral bioavailability)” value [1]?
Answer: 26%

Question: What about the “AUC0–24” value [1] of the same compound?
Answer: 3.9 µg·h/mL

Question: What about the Tmax [1] of the same compound?
Answer: 0.25 h

Question: What about the “t1/2 (oral)” value [1] of the same compound?
Answer: 5.6 h

Question: And the Cmax [1]?
Answer: 1.0 µg/mL

Question: What about the “PAMPA %FA” value [2] of the same compound?
Answer: 97%

Question: For C[C@H]1Cc2c([nH]c3cc(F)ccc23)[C@@]2(N1)C(=O)Nc1ccc(Cl)cc12 [(+)-5], which CL [1] is on record?
Answer: 11.8 mL/min/kg

Question: What about the Vss [1] of the same compound?
Answer: 1.6 L/kg

Question: And the “t1/2 (i.v.)” value [1]?
Answer: 3.8 h

Question: What about the “F (oral bioavailability)” value [1] of the same compound?
Answer: 47%

Question: What about the “AUC0–24” value [1] of the same compound?
Answer: 17.7 µg·h/mL

Question: What about the Tmax [1] of the same compound?
Answer: 0.25 h

Question: And the “t1/2 (oral)” value [1]?
Answer: 4.0 h

Question: What about the Cmax [1] of the same compound?
Answer: 3.1 µg/mL

Question: For C[C@H]1Cc2c([nH]c3cc(F)c(F)cc23)[C@@]2(N1)C(=O)Nc1ccc(Cl)cc12 [(+)-6], which CL [1] is on record?
Answer: 8.5 mL/min/kg

Question: And the Vss [1]?
Answer: 1.6 L/kg

Question: And the “t1/2 (i.v.)” value [1]?
Answer: 2.9 h

Question: And the “F (oral bioavailability)” value [1]?
Answer: 53%

Question: What about the “AUC0–24” value [1] of the same compound?
Answer: 26.8 µg·h/mL

Question: What about the Tmax [1] of the same compound?
Answer: 2 h

Question: And the “t1/2 (oral)” value [1]?
Answer: 3.2 h

Question: And the Cmax [1]?
Answer: 3.1 µg/mL

Question: For C[C@@H]1Cc2c([nH]c3cc(F)c(F)cc23)[C@]2(N1)C(=O)Nc1ccc(Cl)cc12 [(−)-6], which CL [1] is on record?
Answer: 4.2 mL/min/kg

Question: What about the Vss [1] of the same compound?
Answer: 2.8 L/kg

Question: What about the “t1/2 (i.v.)” value [1] of the same compound?
Answer: 13.2 h

Question: What about the “F (oral bioavailability)” value [1] of the same compound?
Answer: 78%

Question: What about the “AUC0–24” value [1] of the same compound?
Answer: 68.2 µg·h/mL

Question: What about the Tmax [1] of the same compound?
Answer: 2 h

Question: What about the “t1/2 (oral)” value [1] of the same compound?
Answer: 7.9 h

Question: And the Cmax [1]?
Answer: 5 µg/mL

Question: And the “PAMPA %FA” value [2]?
Answer: 97%

Question: Which CL [1] does the source give for C[C@@H]1Cc2c([nH]c3cc(Cl)c(F)cc23)[C@]2(N1)C(=O)Nc1ccc(Cl)cc12 [(−)-7] here?
Answer: 2.6 mL/min/kg

Question: What about the Vss [1] of the same compound?
Answer: 1.3 L/kg

Question: What about the “t1/2 (i.v.)” value [1] of the same compound?
Answer: 5.6 h

Question: And the “F (oral bioavailability)” value [1]?
Answer: 92%

Question: And the “AUC0–24” value [1]?
Answer: 107.3 µg·h/mL

Question: What about the Tmax [1] of the same compound?
Answer: 1 h

Question: What about the “t1/2 (oral)” value [1] of the same compound?
Answer: 9.1 h

Question: What about the Cmax [1] of the same compound?
Answer: 8.3 µg/mL
